One experiment concerns cavernous nerve. Briefly: Intracavernosal pressure (ICP) response to electrostimulation after cavernous nerve crush injury. It is filed as in vivo, Sprague-Dawley rats. As to conditions: for ICP response, Control side: control (intact) side; for ICP response, Control side / ICP response, Crush side: 1 day following R-cavernous nerve crush, i.p., FK506 1 mg/kg, Compound 153 15 mg/kg, +/- sem; for ICP response, Crush side: crush (injured) side. How it is done: (§1) Cavernous nerve injury was performed in 12 week old Sprague-Dawley rats by crushing the right cavernous nerve for 3×15 seconds with a fine tip forceps. The rats were treated with saline or Compound 153 (15 mg/kg i.p.) just prior to nerve crush. The right and left major pelvic ganglia were processed for nNOS immunoreactivity. Intracavernosal pressure (ICP) responses to electrostimulation of the right (injured) and left (intact) cavernous nerves were recorded for each animal at 24 hours or 7 days post injury.

The test system of a further experiment is sciatic nerve. As to conditions: rats with crushed sciatic nerves; Gold et al. 1994/1995, Steiner et al. 1997; cited from earlier work.
For a further experiment, the target named is FKBP12 (Homo sapiens, UniProt P62942). Nature of the experiment: K1 test procedure: inhibition of peptidyl-prolyl isomerase (rotamase) activity of FKBP12, chymotrypsin-coupled assay. It counts as biochemical. How it is done:
The inhibition of the prolyl peptidyl cis-trans isomerase activity of FKBP may be measured as an indicator of this affinity.
The cis-trans isomerization of an alanine-proline bond in a model substrate, N-succinyl-Ala-Ala-Pro-Phe-p-nitroanilide, is monitored spectrophotometrically in a chymotrypsin-coupled assay, which releases paranitroanilide from the trans form of the substrate. The inhibition of this reaction caused by the addition of different concentrations of inhibitor is determined, and the data is analyzed as a change in first-order rate constant as a function of inhibitor concentration to yield the apparent K1 values.
In a plastic cuvette are added […] of ice cold assay buffer (25 mM HEPES, pH 7.8, 100 mM NaCl), […] of FKBP (2.5 mM in 10 mM Tris-Cl pH 7.5, 100 mM NaCl, 1 mM dithiothreitol), […] of chymotrypsin (50 mg/ml in 1 mM HCl) and […] of test compound at various concentrations in dimethyl sulfoxide.

In experiment [1] the test system is major pelvic ganglia. Nature of the experiment: nNOS immunoreactivity of right and left major pelvic ganglia after cavernous nerve crush. It counts as in vivo, Sprague-Dawley rats. Particulars: FIG. 1; rat right cavernous nerve crush; 15 mg/kg i.p. just prior to nerve crush. How it is done:
as §1

Experiment [2] deals with major pelvic ganglia. Nature of the experiment: Cresyl Violet staining of right and left major pelvic ganglia after cavernous nerve crush. It counts as in vivo, Sprague-Dawley rats. Particulars: FIG. 2; rat right cavernous nerve crush.
[3] abbreviates: apparent Ki, rotamase inhibition, Table XLI, Formulas I to XIV, read-out: Ki.
[4] abbreviates: relative potency ranking, Table XLII, Formulas XV to XXIV, read-out: Ki.
The mark [5] stands for this setting: apparent Ki, rotamase inhibition, Table XLIII, Formulas XXV to XXIX, read-out: K1.

Where two headings read alike, the source gives them in different places.

FKBP12, sequence (P62942 whole entry, species assumed): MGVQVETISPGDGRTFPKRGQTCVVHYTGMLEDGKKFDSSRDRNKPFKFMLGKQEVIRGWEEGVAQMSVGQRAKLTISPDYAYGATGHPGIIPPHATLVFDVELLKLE

`C=CC[C@@H]1/C=C(\C)C[C@H](C)C[C@H](OC)[C@H]2O[C@@](O)(C(=O)C(=O)N3CCCC[C@H]3C(=O)O[C@H](/C(C)=C/[C@@H]3CC[C@@H](O)[C@H](OC)C3)[C@H](C)[C@@H](O)CC1=O)[C@H](C)C[C@@H]2OC` [FK506, reference compound]: in the experiment with cavernous nerve, the “ICP response, Control side” value is 36.9 +/− 7.7 and the “ICP response, Crush side” value is listed as 32.0 +/− 6.7. `CC[C@@H]1/C=C(\C)[C@@H](O)[C@H](C)C[C@H](OC)[C@H]2O[C@@](O)(C(=O)C(=O)N3CCCC[C@H]3C(=O)O[C@H](/C(C)=C/[C@@H]3CC[C@@H](O)[C@H](OC)C3)[C@H](C)[C@@H](O)CC1=O)[C@H](C)C[C@@H]2OC` [L-685,818]: in the experiment on sciatic nerve, the “nerve regeneration and morphological/functional recovery following sciatic nerve crush” value is given as “as effective as FK506”.

Turning to `O=C(C(=O)N1CCC[C@H]1C(=O)SCCCCc1ccccc1)C1CCCCC1` [compound 33], the Ki at FKBP12 (setting [3]) is 1700 nM. With `CCC(C)(C)C(=O)C(=O)N1CCC[C@H]1C(=O)SCCCc1cccc2ccccc12` [compound 47], the Ki at FKBP12 (setting [3]) was 21 nM.

With `CCC(C)(C)C(=O)C(=O)N1CCC[C@H]1C(=O)OCCCc1ccc[n+]([O-])c1` [compound 95], the Ki on FKBP12 (setting [3]) was 225 nM. Regarding `CCC(C)CNC(=O)N1CCC[C@H]1C(=O)SCCCc1cccnc1` (stereo partly drawn) [compound 101, 3-(3-Pyridyl)-1-propylmercaptyl 2S-1-[(2-methylbutyl)carbamoyl]pyrrolidine-2-carboxylate], the Ki at FKBP12 (setting [4]) lay in the range of 1 to 50 nM.

`CCC(C)(C)NC(=O)N1CCC[C@H]1C(=O)SCCCc1cccnc1` [compound 102]: the Ki on FKBP12 (setting [4]) fell in the range of 51 to 200 nM. `COc1ccc(CCCSC(=O)C2CCCN2C(=S)NC2CCCCC2)cc1` (stereo not shown) [compound 105]: at FKBP12 (setting [4]), the Ki fell in the range of 51 to 200 nM. Same read-out and setting: the result for `CCC(C)(C)NC(=S)N1CCCC1C(=O)SCCCc1cccnc1` (stereo not shown) [compound 109] reads 1 to 50 nM. Same read-out and setting: the result for `CCC(C)(C)NC(=O)N1CCCC1C(=O)SCCC(c1ccccc1)c1ccccc1` (stereo not shown) [compound 110] reads 1 to 50 nM; that for `O=C(SC(CCc1ccccc1)CCc1ccccc1)C1CCCCN1C(=O)NC1CCCCC1` (stereo not shown) [compound 114], 1 to 50 nM; that for `COc1ccc(CCCSC(=O)[C@@H]2CCCN2S(=O)(=O)c2ccccc2)cc1` [compound 120, 3-(para-Methoxyphenyl)-1-propylmercaptyl(2S)-N-(benzenesulfonyl)pyrrolidine-2-carboxylate], 51 to 200 nM. For `COc1ccc(CCCSC(=O)[C@@H]2CCCN2S(=O)(=O)Cc2ccccc2)cc1` [compound 121, 3-(para-Methoxyphenyl)-1-propylmercaptyl(2S)-N-(a-toluenesulfonyl)pyrrolidine-2-carboxylate], the Ki on FKBP12 (setting [4]) lay in the range of 51 to 200 nM. On the same count and under the same terms, the result for `COc1ccc(CCCSC(=O)[C@@H]2CCCN2S(=O)(=O)c2ccc(C)cc2)cc1` [compound 122, 3-(para-Methoxyphenyl)-1-propylmercaptyl(2S)-N-(a-toluenesulfonyl)pyrrolidine-2-carboxylate] reads 201 to 500 nM. Turning to `CCC(C)(C)C(=O)C(=O)N1CCC[C@H]1C(=O)OC/C=C/c1cc(OC)ccc1OC` [compound 151, 3-(2,5-dimethoxyphenyl)-1-prop-2-(E)-enyl (2S)-1-(3,3-dimethyl-1,2-dioxopentyl)-2-pyrrolidine-carboxylate], the Ki on FKBP12 (setting [5]) was found to be 450 nM.

`CCC(C)(C)C(=O)C(=O)N1CCC[C@H]1C(=O)OCCCc1cccnc1` [compound 153, 3-(3-Pyridyl)-1-propyl (2S)-1-(3,3-dimethyl-1,2-dioxopentyl)-2-pyrrolidinecarboxylate]: the “effect of administration on crushed cavernous nerves” value in the experiment on cavernous nerve (Example 30, rats, 15 mg/kg i.p. just prior to nerve crush) was “regenerate the penile cavernous nerve”. In addition, in the experiment with cavernous nerve, the “ICP response, Control side” value was 42.8 +/− 1.9 and the “ICP response, Crush side” value is 42.7 +/− 2.2. In addition, in the experiment with major pelvic ganglia [1], the “effect on the right and left major pelvic ganglia as processed for nNOS immunoreactivity” value is “protective effect”. Moreover, in the experiment with major pelvic ganglia [2], the “effect on the right and left major pelvic ganglia as processed for Cresyl Violet staining” value is “protective effect”. `CC1(C)COC(=O)CCCCCCCCCCCOC(=O)[C@@H]2CCCCN2C(=O)C1=O` [compound 186, (24aS)-17,17-dimethylperhydropyrido[2,1-c] [1,9,4]dioxazacyclohenicosine-1,14,18,19-tetraone]: the Ki on FKBP12 (setting [5]) was determined as 150 nM.

The values above are taken from patent US20030203890A1 (priority 2001, published 2003).
